{"source": "ChEMBL document CHEMBL2375353", "about": "“Efficient induction of apoptosis in HeLa cells by a novel cationic porphycene photosensitizer” (Eur J Med Chem, 2013)", "key": {"[1]": {"system": "HeLa", "test": "Induction of apoptosis in human HeLa cells assessed as changes in microtubules and actin microfilament alteration at 0.75 to 0.5 uM after 18 hrs by immunostaining assay", "format": "cell-based"}, "[2]": {"system": "HeLa", "test": "Induction of necrosis in human HeLa cells assessed as disorganization of F-actin at 0.75 uM incubated for 18 hrs followed by red light irradiation measured after 24 hrs by immunostaining", "format": "functional, cell-based"}, "[3]": {"system": "HeLa", "test": "Phototoxicity against human HeLa cells at 0.5 uM incubated for 18 hrs prior to red light irradiation measured after 3 to 24 hrs by trypan blue exclusion assay", "format": "functional, cell-based"}, "[4]": {"system": "HeLa", "test": "Induction of necrosis in human HeLa cells assessed as giant bubble formation at 0.75 uM incubated for 18 hrs prior to red light irradiation measured after 1 hr by phase contrast microscopy", "format": "functional, cell-based"}, "[5]": {"system": "HeLa", "test": "Induction of apoptosis in human HeLa cells at 0.75 to 0.5 uM after 18 hrs by Hoechst-33258 staining", "format": "cell-based"}, "[6]": {"system": "HeLa", "test": "Induction of apoptosis in human HeLa cells assessed as trypsin-mediated cell detachment incubated for 18 hrs prior to red light irradiation measured after 24 hrs by hemocytometer", "format": "functional, cell-based"}, "[7]": {"system": "HeLa", "test": "Induction of apoptosis in human HeLa cells assessed as fragmented chromatin at 0.5 uM incubated for 18 hrs prior to red light irradiation measured after 6 hrs by immunofluorescence method", "format": "functional, cell-based"}, "[8]": {"system": "HeLa", "test": "Induction of apoptosis in human HeLa cells assessed as reduction in vinculin expression at 0.5 uM incubated for 18 hrs followed by red light irradiation measured after 3 hrs by immunostaining assay", "format": "functional, cell-based"}, "[9]": {"system": "HeLa", "test": "Phototoxicity against human HeLa cells at 0.75 uM incubated for 18 hrs prior to red light irradiation measured after 3 to 24 hrs by trypan blue exclusion assay", "format": "functional, cell-based"}, "[10]": {"system": "HeLa", "test": "Ratio of drug uptake in human HeLa cells at 0.5 uM after 18 hrs to drug uptake in human HeLa cells at 0.5 uM after 1 hr", "format": "ADME, cell-based"}, "[11]": {"system": "HeLa", "test": "Drug uptake in human HeLa cells at 0.5 uM by flow cytometry", "format": "ADME, cell-based", "settings": "TDE = time-dependent effect"}, "[12]": {"system": "HeLa", "test": "Induction of apoptosis in human HeLa cells at 0.5 uM incubated for 18 hrs prior to red light irradiation measured after 6 hrs by TUNEL assay", "format": "functional, cell-based"}, "[13]": {"system": "HeLa", "test": "Induction of ROS generation in human HeLa cells assessed as singlet oxygen luminescence signal at 5 uM after 18 hrs in presence of sodium azide", "format": "functional, cell-based"}, "[14]": {"system": "HeLa", "test": "Induction of apoptosis in human HeLa cells assessed as reduction in cell volume at 0.5 uM incubated for 18 hrs followed by red light irradiation measured after 3 hrs by Hoechst-33258 staining", "format": "functional, cell-based"}, "[15]": {"system": "HeLa", "test": "Induction of apoptosis in human HeLa cells assessed as apoptotic chromatin at 0.5 uM incubated for 18 hrs followed by red light irradiation measured after 6 hrs by immunostaining assay", "format": "functional, cell-based"}, "[16]": {"system": "HeLa", "test": "Drug uptake in human HeLa cells assessed as localization to lysosome at 0.5 uM after 18 hrs by prior to UV irradiation by fluorescence microscopy", "format": "ADME, cell-based"}, "[17]": {"system": "HeLa", "test": "Drug uptake in human HeLa cells assessed as perinuclear localization at 0.5 uM incubated for 18 hrs prior to UV irradiation by fluorescence microscopy", "format": "ADME, cell-based"}, "[18]": {"system": "HeLa", "test": "Induction of apoptosis in human HeLa cells assessed as relocalization of proapoptotic Bax protein within mitochondria at 0.5 uM incubated for 18 hrs prior to red light irradiation measured after 3 to 24 hrs by indirect immunofluorescence", "format": "functional, cell-based"}, "[19]": {"system": "HeLa", "test": "Drug uptake in human HeLa cells at 0.75 uM after 18 hrs by fluorescence microscopy", "format": "ADME, cell-based"}, "[20]": {"system": "HeLa", "test": "Induction of apoptosis in human HeLa cells assessed as cytochrome c relocation at 0.75 to 0.5 uM after 18 hrs by immunofluorescence method", "format": "cell-based"}, "[21]": {"system": "HeLa", "test": "Induction of ROS generation in human HeLa cells assessed as singlet oxygen luminescence signal at 5 uM after 18 hrs", "format": "functional, cell-based"}, "[22]": {"system": "HeLa", "test": "Induction of ROS generation in human HeLa cells assessed as cell survival at 0.5 uM incubated for 18 hrs prior to red light irradiation measured after 24 hrs by MTT assay", "format": "functional", "settings": "light or radiation study, read-out: Activity"}, "[23]": {"system": "HeLa", "test": "Phototoxicity against human HeLa cells at 0.75 uM incubated for 18 hrs prior to 3.6 J/cm'2 red light irradiation by MTT assay", "format": "functional, cell-based"}, "[24]": {"system": "HeLa", "test": "Induction of apoptosis in human HeLa cells at 0.75 to 0.5 uM after 18 hrs by neutral red staining", "format": "cell-based"}, "[25]": {"system": "HeLa", "test": "Induction of apoptosis in human HeLa cells assessed as reduction in vinculin expression at 0.5 uM incubated for 18 hrs followed by red light irradiation measured after 6 hrs by immunostaining assay", "format": "functional, cell-based"}, "[26]": {"system": "HeLa", "test": "Induction of apoptosis in human HeLa cells assessed as reduction in F-actin expression at 0.75 to 0.5 uM incubated for 18 hrs by immunostaining assay", "format": "cell-based"}, "[27]": {"system": "HeLa", "test": "Phototoxicity against human HeLa cells at 1 uM incubated for 18 hrs prior to 2.4 J/cm'2 red light irradiation by MTT assay", "format": "functional"}, "[28]": {"system": "HeLa", "test": "Induction of apoptosis in human HeLa cells assessed as reduction in F-actin expression at 0.5 uM incubated for 18 hrs followed by red light irradiation measured after 6 hrs by immunostaining assay", "format": "functional, cell-based"}, "[29]": {"system": "HeLa", "test": "Darktoxicity against human HeLa cells at 1 uM after 18 hrs by MTT assay", "format": "cell-based"}, "[30]": {"system": "HeLa", "test": "Induction of apoptosis in human HeLa cells incubated for 18 hrs prior to red light irradiation measured after 3 hrs by trypan blue exclusion assay", "format": "functional, cell-based"}, "[31]": {"system": "HeLa", "test": "Induction of apoptosis in human HeLa cells incubated for 18 hrs prior to red light irradiation measured after 24 hrs by trypan blue exclusion assay", "format": "functional, cell-based"}, "[32]": {"system": "HeLa", "test": "Induction of apoptosis in human HeLa cells at 0.5 uM incubated for 18 hrs followed by red light irradiation by Hoechst-33258 staining", "format": "functional"}}, "note": "Calls of active or inactive are those of the source. The rule behind the calls is not given here.", "data": [{"molecule": "COCc1ccc(C2=Cc3nc2ccc2[nH]c(cc2-c2ccc(C[n+]4ccccc4)cc2)c2nc(ccc4[nH]c3cc4-c3ccc(C[n+]4ccccc4)cc3)C(c3ccc(C[n+]4ccccc4)cc3)=C2)cc1.[Br-].[Br-].[Br-]", "values": [{"measurement": "Activity", "setting": "[1]", "result": "Non-toxic"}, {"measurement": "Activity", "setting": "[2]", "result": "Active"}, {"measurement": "Activity", "setting": "[3]", "result": "Active"}, {"measurement": "Activity", "setting": "[4]", "result": "Active"}, {"measurement": "Activity", "setting": "[5]", "result": "Non-toxic"}, {"measurement": "Activity", "setting": "[6]", "result": "Dose-dependent effect"}, {"measurement": "Activity", "setting": "[7]", "result": "Active"}, {"measurement": "Activity", "setting": "[8]", "result": "Active"}, {"measurement": "Activity", "setting": "[9]", "result": "Active"}, {"measurement": "Ratio", "setting": "[10]", "result": 3}, {"measurement": "Drug uptake", "setting": "[11]", "result": "tde"}, {"measurement": "Activity", "setting": "[12]", "result": "Active"}, {"measurement": "Activity", "setting": "[13]", "result": "inactive"}, {"measurement": "Activity", "setting": "[14]", "result": "Active"}, {"measurement": "Activity", "setting": "[15]", "result": "Active"}, {"measurement": "Drug uptake", "setting": "[16]", "result": "Active"}, {"measurement": "Drug uptake", "setting": "[17]", "result": "Active"}, {"measurement": "Activity", "setting": "[18]", "result": "Active"}, {"measurement": "Drug uptake", "setting": "[19]", "result": "Active"}, {"measurement": "Activity", "setting": "[20]", "result": "Non-toxic"}, {"measurement": "Activity", "setting": "[21]", "result": "Active"}, {"measurement": "viability at 0.5 µM", "setting": "[22]", "result": 5.2, "unit": "%"}, {"measurement": "Activity", "setting": "[23]", "result": "Active"}, {"measurement": "Activity", "setting": "[24]", "result": "Non-toxic"}, {"measurement": "Activity", "setting": "[25]", "result": "Active"}, {"measurement": "Activity", "setting": "[26]", "result": "Non-toxic"}, {"measurement": "Activity", "setting": "[27]", "result": ">50", "unit": "%"}, {"measurement": "Activity", "setting": "[28]", "result": "Active"}, {"measurement": "Activity", "setting": "[29]", "result": "Toxic"}, {"measurement": "Activity", "setting": "[30]", "result": "Active"}, {"measurement": "Activity", "setting": "[31]", "result": "Active"}, {"measurement": "Activity", "setting": "[32]", "result": 70, "unit": "%"}]}]}
